The text below walks through data of ChEMBL document CHEMBL1201862, “PubChem BioAssay data set” (2004).

What all share (assay): inhibition of tumour cell growth, NCI panel, 48 h
Test [1] concerns T47D.
Test [2] relates to NCI-H460.
Test [3] has as its system NCI-H522.
Test [4] concerns A549.
In test [5] the test system is EKVX.
Test [6] deals with HOP-62.
Test [7] concerns Malme-3M.
The test system of test [8] is DU-145.
The test system of test [9] is SR.
Test [10] deals with OVCAR-4.
In test [11] the test system is CCRF-CEM.
In test [12] the test system is K562.
In test [13] the test system is SNB-75.
In test [14] the test system is OVCAR-3.
Test [15] concerns NCI/ADR-RES.
For test [16], the system named is UO-31.
Test [17] relates to HCT-15.
Test [18] relates to M14.
Test [19] relates to CAKI-1.
In test [20] the test system is RPMI-8226.

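Cultured in 96-well plates, cells were exposed to test compound for 48 hours across five concentrations. GI50: concentration for 50% inhibition of growth.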 The source made the active and inactive calls. Cut-off read from the data, not from the text of the source: active = GI50 up to about 1.1 µM and inactive = higher.

For `CC(=O)OCc1cc2ccccc2nc1C(Br)(Br)Br`, the GI50 in [1] is 27.8 µM (inactive); in [2] it was 16.2 µM (inactive); in test [3] it was 16 µM (inactive); in test [4] it was 16.4 µM (inactive); in test [5], 19.1 µM (inactive); in [6], 26.1 µM (inactive). Moreover, the GI50 is 0.603 µM (active) in test [7]; 4.59 µM (inactive) in test [8]; 1.46 µM (inactive) in [9]; 11.8 µM (inactive) in [10]; 10.9 µM (inactive) in [11]; 18 µM (inactive) in [12]. Besides, the GI50 is 14.6 µM (inactive) in [13]; 14.8 µM (inactive) in [14]; 17.1 µM (inactive) in test [15]; 15.6 µM (inactive) in [16]; 16.9 µM in test [17]; 18.8 µM (inactive) in test [18]. Also, the GI50 in [19] was 15.7 µM (inactive).
`COc1cc(OC)c(/C=C\c2ccnc3ccccc23)c(OC)c1`: the GI50 in test [1] was 3.12 µM (inactive); in test [20] it was 3.06 µM (inactive); in test [2], 3.2 µM (inactive); in [3], 3.76 µM (inactive); in test [4], 4.13 µM (inactive); in test [5], 4.65 µM (inactive). Further, the GI50 in test [6] is 5.19 µM (inactive); in test [7], 1.34 µM (inactive); in test [8] it was 5.37 µM (inactive); in test [9], 0.689 µM (active); in [10], 0.349 µM (active); in test [11] it was 1.7 µM (inactive). The GI50 in test [12] is 0.433 µM (active); in test [14], 2.92 µM (inactive); in test [15], 2.07 µM (inactive); in test [16], 0.859 µM (active); in test [17], 0.794 µM; in [18], 3.4 µM (inactive). For the same compound, in test [19], the GI50 was 6.93 µM (inactive).
Consider `C[N+]1(c2ccccc2)C=C(c2ccccc2)SC1=S` (centres undefined), for which the GI50 is 1.67 µM (inactive) in test [1]; 21 µM (inactive) in [20]; 95.7 µM (inactive) in [2]; 30.6 µM (inactive) in test [3]; > 100 µM (inactive) in test [4]; 18.1 µM (inactive) in [5]. Moreover, the GI50 in [6] was > 100 µM (inactive); in test [7] it was 73.1 µM (inactive); in test [8], 3.9 µM (inactive); in test [9], > 100 µM (inactive); in [12], 42.7 µM (inactive); in [14], 8.22 µM (inactive). For the same compound, the GI50 in [15] is > 100 µM (inactive); in test [16] it was > 100 µM (inactive); in test [17], above 100 µM; in [18] it was > 100 µM (inactive); in test [19] it was > 100 µM (inactive).
`CCOC(=O)c1c(NC(=O)c2ccccc2)sc2c1CCC2`: the GI50 in test [1], in test [20], in test [2], in test [4], in test [5] and in [6] was > 100 µM (inactive) each time. For the same compound, the GI50 in [8], in test [9], in [11], in test [12], in [13] and in [14] was > 100 µM (inactive) in each case. The GI50 in test [15] was > 100 µM (inactive); in test [16], > 100 µM (inactive); in test [17] it was above 100 µM; in test [18], > 100 µM (inactive); in test [19], > 100 µM (inactive).
In the case of `CN(C)Cc1cc(C(=O)/C=C/c2ccc([N+](=O)[O-])cc2)cc(CN(C)C)c1O`, the GI50 is 13.4 µM (inactive) in test [1]; 2.43 µM (inactive) in [20]; 4.74 µM (inactive) in [3]; 22.7 µM (inactive) in test [4]; 12.8 µM (inactive) in [5]; 3.72 µM (inactive) in [6]. The GI50 was 11 µM (inactive) in test [8]; 4.12 µM (inactive) in test [9]; 3.3 µM (inactive) in test [11]; 4.13 µM (inactive) in test [12]; 2.97 µM (inactive) in [13]; 2.27 µM (inactive) in test [14]. Further, the GI50 in test [15] was 26.7 µM (inactive); in [16] it was 16.1 µM (inactive); in [17] it was 10.1 µM; in [18] it was 9.23 µM (inactive).
As to `Cc1ccc2c(c1)-c1nc(N)c(C#N)c(-c3ccc(Cl)cc3)c1CCS2(=O)=O`, the GI50 was 33.2 µM (inactive) in [1]; 35.2 µM (inactive) in test [2]; 29.8 µM (inactive) in [3]; 34.8 µM (inactive) in test [4]; 44.6 µM (inactive) in test [7]; 53.8 µM (inactive) in test [8]. In addition, the GI50 was 24.5 µM (inactive) in [9]; 52 µM (inactive) in test [10]; 20.7 µM (inactive) in test [11]; 49 µM (inactive) in test [13]; 36.2 µM (inactive) in test [15]; 20 µM (inactive) in [16]. In addition, the GI50 is 43.2 µM in test [17] and 38.5 µM (inactive) in test [19].
Take `CNC(=O)C1(N)c2ccccc2C=Cc2ccccc21`: the GI50 in test [1], in [20], in test [3], in test [4], in test [5] and in test [6] was > 100 µM (inactive) throughout. Moreover, the GI50 in [7], in test [8], in test [9], in test [10], in test [11] and in [12] was > 100 µM (inactive) each time. Moreover, the GI50 in [14] was > 100 µM (inactive); in test [15], > 100 µM (inactive); in test [16], > 100 µM (inactive); in test [17], above 100 µM; in test [18], > 100 µM (inactive); in test [19] it was > 100 µM (inactive).
Take `Cc1cc(N(CCCCl)CCCCl)ccc1/C=N/c1cccc(Cl)c1`: the GI50 in [1] was 0.45 µM (active); in test [20], < 0.01 µM (active); in test [2], 0.977 µM (active); in [3], 17.5 µM (inactive); in test [4], 12.3 µM (inactive); in [7] it was 8.79 µM (inactive). Moreover, the GI50 was 14.7 µM (inactive) in test [8]; 11.8 µM (inactive) in [9]; 12.4 µM (inactive) in [10]; 7.26 µM (inactive) in test [12]; 12.1 µM (inactive) in test [13]; 14.5 µM (inactive) in test [14]. Further, the GI50 in test [15] is 14.2 µM (inactive); in test [16] it was 10.5 µM (inactive); in [17], 13.6 µM; in test [18], 18.5 µM (inactive).
Consider `O=C(CC(C(=O)c1cccs1)c1cccs1)c1ccccc1Cl` (centres undefined), for which the GI50 in [1] is 52 µM (inactive); in test [20], 50.1 µM (inactive); in test [2], 77.1 µM (inactive); in [4], > 100 µM (inactive); in [5], 49.8 µM (inactive); in test [6] it was > 100 µM (inactive). Moreover, the GI50 in test [7] was 61.8 µM (inactive); in test [8], > 100 µM (inactive); in test [9], 39.5 µM (inactive); in [10], > 100 µM (inactive); in [11] it was > 100 µM (inactive); in test [12], 98.4 µM (inactive). Moreover, the GI50 is > 100 µM (inactive) in test [13]; 33.5 µM (inactive) in [15]; 29.7 µM (inactive) in test [16]; 94.8 µM in [17]; > 100 µM (inactive) in test [18]; > 100 µM (inactive) in [19].
As to `COC(=O)C1(C(=O)OC)Cc2ccc(C)cc2C2=C1C(=O)c1ccccc1C2=O`, the GI50 in test [1] was 7.71 µM (inactive); in test [2], 40.6 µM (inactive); in test [3], 15.1 µM (inactive); in test [4], 29.9 µM (inactive); in test [5], 14.6 µM (inactive); in [6], 14.4 µM (inactive). Moreover, the GI50 in test [7] is 32 µM (inactive); in [8] it was 20.2 µM (inactive); in test [9], 24.2 µM (inactive); in test [10] it was 11.5 µM (inactive); in [11], 15.2 µM (inactive); in test [12], 18.2 µM (inactive). Moreover, the GI50 in test [13] was 12.8 µM (inactive); in test [14] it was 3.24 µM (inactive); in test [15] it was 12.6 µM (inactive); in [17], 12.6 µM; in test [18], > 10 µM (inactive).
With `c1ccc(-c2cn3nc(N4CCOCC4)sc3n2)cc1`, the GI50 in test [1] was 56.8 µM (inactive); in test [20], > 100 µM (inactive); in test [2], 54.1 µM (inactive); in test [3] it was > 100 µM (inactive); in [4], > 100 µM (inactive); in [5], > 100 µM (inactive). Besides, the GI50 was 53.7 µM (inactive) in [6]; > 100 µM (inactive) in test [7]; > 100 µM (inactive) in test [8]; 34 µM (inactive) in [10]; > 100 µM (inactive) in test [11]; > 100 µM (inactive) in test [12]. The GI50 is 38.7 µM (inactive) in test [13]; > 100 µM (inactive) in test [14]; > 100 µM (inactive) in test [15]; > 100 µM (inactive) in test [16]; above 100 µM in [17]; > 100 µM (inactive) in test [18]. In test [19], the GI50 is 16.6 µM (inactive).
With `CC1(C)CC(=O)c2c(nc3c4c([nH]c(-c5ccc(Br)cc5)c24)CC(C)(C)C3)C1`, the GI50 is 23.2 µM (inactive) in test [1]; 37.8 µM (inactive) in test [2]; 23.6 µM (inactive) in test [3]; 29.6 µM (inactive) in [4]; 50.2 µM (inactive) in test [5]; > 100 µM (inactive) in test [6]. The GI50 in test [7] is 49.1 µM (inactive); in test [8] it was 65.3 µM (inactive); in test [9], 8.65 µM (inactive); in test [10], 30.7 µM (inactive); in test [11], 16.9 µM (inactive); in test [12], 18.2 µM (inactive). In addition, the GI50 in [13] was 27.9 µM (inactive); in test [14], 27.1 µM (inactive); in [15], 33.7 µM (inactive); in test [16], 45.1 µM (inactive); in test [17], 31.3 µM; in [18], 36.6 µM (inactive). Further, in [19], the GI50 was 50.4 µM (inactive).
